The values that follow come from patent US8962856B2, “Modulators of cystic fibrosis transmembrane conductance regulator” (Vertex Pharmaceuticals Incorporated, priority 2005, dated 2015).

For the test, the target named is T1, ΔF508-CFTR (Homo sapiens, UniProt P13569, DEL508-508).
T1 construct: expressed in transfected cells
Description: Membrane potential optical assay for ΔF508-CFTR correction. In kind it is cell-based. The settings on record: for % Efficacy / Emax: relative efficacy. An excerpt:
Assays for Detecting and Measuring ΔF508-CFTR Correction Properties of Compounds
I) Membrane Potential Optical Methods for Assaying ΔF508-CFTR Modulation Properties of Compounds
The optical membrane potential assay utilized voltage-sensitive FRET sensors described by Gonzalez and Tsien (See Gonzalez, J. E. and R. Y. Tsien (1995) “Voltage sensing by fluorescence resonance energy transfer in single cells” Biophys J 69(4): 1272-80, and Gonzalez, J. E. and R. Y. Tsien (1997) “Improved indicators of cell membrane potential that use fluorescence resonance energy transfer” Chem Biol 4(4): 269-77) in combination with instrumentation for measuring fluorescence changes such as the Voltage/Ion Probe Reader (VIPR) (See, Gonzalez, J. E., K. Oades, et al. (1999) “Cell-based assays and instrumentation for screening ion-channel targets” Drug Discov Today 4(9): 431-439).
These voltage sensitive assays are based on the change in fluorescence resonant energy transfer (FRET) between the membrane-soluble, voltage-sensitive dye, DiSBAC2(3), and a fluorescent phospholipid, CC2-DMPE, which is attached to the outer leaflet of the plasma membrane and acts as a FRET donor. Changes in membrane potential (Vm) cause the negatively charged DiSBAC2(3) to redistribute across the plasma membrane and the amount of energy transfer from CC2-DMPE changes accordingly. The changes in fluorescence emission were monitored using VIPR™ II, which is an integrated liquid handler and fluorescent detector designed to conduct cell-based screens in 96- or 384-well microtiter plates.
NIH3T3 mouse fibroblasts stably expressing ΔF508-CFTR are used for optical measurements of membrane potential. The cells are maintained at 37° C. in 5% CO2 and 90% humidity in Dulbecco's modified Eagle's medium supplemented with 2 mM glutamine, 10% fetal bovine serum, 1×NEAA, β-ME, 1× pen/strep, and 25 mM HEPES in 175 cm^2 culture flasks. For all optical assays, the cells were seeded at 30,000/well in 384-well matrigel-coated plates and cultured for 2 hrs at 37° C. before culturing at 27° C. for 24 hrs. for the potentiator assay. For the correction assays, the cells are cultured at 27° C. or 37° C. with and without compounds for 16-24 hoursB) Electrophysiological Assays for assaying ΔF508-CFTR modulation properties of compounds

T1 sequence (P13569 with tags, fused parts or gaps DEL508-508): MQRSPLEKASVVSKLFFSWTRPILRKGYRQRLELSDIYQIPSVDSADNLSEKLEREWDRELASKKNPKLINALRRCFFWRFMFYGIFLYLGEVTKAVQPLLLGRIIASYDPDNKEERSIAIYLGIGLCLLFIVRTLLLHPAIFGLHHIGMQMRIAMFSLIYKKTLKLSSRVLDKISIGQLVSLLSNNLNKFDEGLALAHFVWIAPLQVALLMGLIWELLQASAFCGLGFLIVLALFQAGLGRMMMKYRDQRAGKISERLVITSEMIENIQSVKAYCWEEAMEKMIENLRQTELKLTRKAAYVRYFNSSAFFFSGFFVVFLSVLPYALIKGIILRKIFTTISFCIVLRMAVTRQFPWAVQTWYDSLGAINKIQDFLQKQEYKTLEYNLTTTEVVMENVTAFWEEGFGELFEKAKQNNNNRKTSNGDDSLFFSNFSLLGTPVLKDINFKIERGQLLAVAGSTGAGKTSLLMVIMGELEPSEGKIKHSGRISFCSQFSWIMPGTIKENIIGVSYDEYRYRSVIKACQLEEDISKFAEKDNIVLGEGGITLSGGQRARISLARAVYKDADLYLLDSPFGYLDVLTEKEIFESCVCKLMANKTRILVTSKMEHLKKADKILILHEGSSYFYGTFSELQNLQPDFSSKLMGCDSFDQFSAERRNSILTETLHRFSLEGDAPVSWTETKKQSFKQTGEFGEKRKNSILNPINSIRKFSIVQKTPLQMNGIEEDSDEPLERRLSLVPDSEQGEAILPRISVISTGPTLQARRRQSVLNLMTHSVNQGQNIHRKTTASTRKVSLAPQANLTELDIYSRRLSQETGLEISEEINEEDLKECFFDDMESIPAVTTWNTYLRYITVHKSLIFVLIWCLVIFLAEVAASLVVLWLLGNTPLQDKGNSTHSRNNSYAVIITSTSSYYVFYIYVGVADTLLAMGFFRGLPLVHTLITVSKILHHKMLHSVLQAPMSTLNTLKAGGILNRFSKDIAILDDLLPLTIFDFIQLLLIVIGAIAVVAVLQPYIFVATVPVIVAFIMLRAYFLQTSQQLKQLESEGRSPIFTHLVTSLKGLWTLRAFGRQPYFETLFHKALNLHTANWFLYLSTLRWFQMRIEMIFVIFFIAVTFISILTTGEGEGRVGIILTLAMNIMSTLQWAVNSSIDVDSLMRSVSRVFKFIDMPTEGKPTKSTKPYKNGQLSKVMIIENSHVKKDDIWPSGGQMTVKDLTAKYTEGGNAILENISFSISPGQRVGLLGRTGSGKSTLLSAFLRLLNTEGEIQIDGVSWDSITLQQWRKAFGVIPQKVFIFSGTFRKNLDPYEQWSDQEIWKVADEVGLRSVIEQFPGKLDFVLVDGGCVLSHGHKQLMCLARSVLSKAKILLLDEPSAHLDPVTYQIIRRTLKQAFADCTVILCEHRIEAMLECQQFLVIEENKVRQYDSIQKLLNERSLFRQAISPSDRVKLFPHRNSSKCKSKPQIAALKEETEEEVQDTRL

Consider “1-(Benzo[d][1,3]dioxol-6-yl)-N-(5-((R)-(2-chlorophenyl)((R)-3-hydroxypyrrolidin-1-yl)methyl)thiazol-2-yl)cyclopropanecarboxamide [Compound 2]”, for which the EC50 – broadly, the concentration needed to bring the measured effect to its halfway point – lay within 2000 to 20000 nM and the “% Efficacy” value is on record as “+++ (“+++” means >100%)”.

Take `O=C(Nc1ncc([C@H](c2ccccc2Cl)N2CC[C@@H](O)C2)s1)C1(c2ccc3c(c2)OC(F)(F)O3)CC1` [Compound 11]: the EC50 is under 2000 nM.

Take `O=C(Nc1ncc([C@@H](c2ccc(Cl)c(Cl)c2)N2CC[C@@H](O)C2)s1)C1(c2ccc3c(c2)OCO3)CC1` [Compound 6]: the EC50 was under 2000 nM and the Emax (in general, the size of the effect at its maximum, as opposed to the concentration needed) is over 100%.

For `Cc1nc(NC(=O)C2(c3ccc4c(c3)OCO4)CC2)sc1[C@H](c1ccccc1Cl)N1CC[C@H](O)C1` [Compound 8], the EC50 is under 2000 nM and the Emax was over 100%.

With `O=C(Nc1ncc([C@H](c2ccccc2Cl)N2CC[C@@H](O)C2)s1)C1(c2ccc3c(c2)OCO3)CC1` [Compound 12], the EC50 is under 2000 nM and the Emax lay within 25 to 100%.

As to `O=C(Nc1ncc([C@H](c2ccc(Cl)cc2F)N2CC[C@@H](O)C2)s1)C1(c2ccc3c(c2)OC(F)(F)O3)CC1` [Compound 4], the EC50 is under 2000 nM and the maximal effect (Emax) is over 100%.

Consider “1-(Benzo[d][1,3]dioxol-6-yl)-N-(5-((S)-(2-chlorophenyl)((R)-3-hydroxypyrrolidin-1-yl)methyl)thiazol-2-yl)cyclopropanecarboxamide [Compound 1]”, for which the concentration for a half-maximal effect (EC50) is under 2000 nM and the “% Efficacy” value was “+++ (“+++” means >100%)”.

For `O=C(Nc1ncc([C@H](c2ccc(Cl)cc2F)N2CC[C@@H](O)C2)s1)C1(c2ccc3c(c2)OCO3)CC1` [Compound 3], the EC50 was under 2000 nM and the Emax was over 100%.

For `Cc1nc(NC(=O)C2(c3ccc4c(c3)OCO4)CC2)sc1[C@@H](c1ccccc1Cl)N1CC[C@H](O)C1` [Compound 7], the EC50 was under 2000 nM and the Emax was over 100%.

On to `O=C(Nc1ncc([C@@H](c2ccccc2Cl)N2CC[C@@H](O)C2)s1)C1(c2ccc3c(c2)OCO3)CC1` [Compound 13], for which the EC50 is under 2000 nM and the Emax was over 100%.

Take `Cc1nc(NC(=O)C2(c3ccc4c(c3)OC(F)(F)O4)CC2)sc1[C@H](c1ccccc1Cl)N1CC[C@H](O)C1` [Compound 10]: the 50% effective concentration (EC50) was under 2000 nM and the Emax is over 100%.

Turning to `Cc1nc(NC(=O)C2(c3ccc4c(c3)OC(F)(F)O4)CC2)sc1[C@@H](c1ccccc1Cl)N1CC[C@H](O)C1` [Compound 9], the EC50 was under 2000 nM and the Emax was over 100%.

In the case of `O=C(Nc1ncc([C@H](c2ccc(Cl)c(Cl)c2)N2CC[C@@H](O)C2)s1)C1(c2ccc3c(c2)OCO3)CC1` [Compound 5], the EC50 was under 2000 nM and the maximal effect (Emax) was over 100%.

Regarding `O=C(Nc1ncc(C(c2ccccc2Cl)N2CC[C@@H](O)C2)s1)C1(c2ccc3c(c2)OC(F)(F)O3)CC1` (some centres unmarked) [Compound 11], the Emax was over 100%.
